ChEMBL document CHEMBL3351528, “Targeting dopamine D3 and serotonin 5-HT1A and 5-HT2A receptors for developing effective antipsychotics: synthesis, biological characterization, and behavioral studies” (J Med Chem, 2014)
Blank lines part the entries; values can stand above or below the molecule they belong to. Active and inactive are the calls of the source. The rule behind the calls is not given here.

Tests used:
D(2) dopamine receptor = D(2) dopamine receptor (Homo sapiens, UniProt P14416)
Description: Binding affinity to dopamine D2 receptor (unknown origin)

[1] = biological target: 5-hydroxytryptamine receptor 2A (Homo sapiens, UniProt P28223)
Sequence of 5-hydroxytryptamine receptor 2A (P28223 whole entry): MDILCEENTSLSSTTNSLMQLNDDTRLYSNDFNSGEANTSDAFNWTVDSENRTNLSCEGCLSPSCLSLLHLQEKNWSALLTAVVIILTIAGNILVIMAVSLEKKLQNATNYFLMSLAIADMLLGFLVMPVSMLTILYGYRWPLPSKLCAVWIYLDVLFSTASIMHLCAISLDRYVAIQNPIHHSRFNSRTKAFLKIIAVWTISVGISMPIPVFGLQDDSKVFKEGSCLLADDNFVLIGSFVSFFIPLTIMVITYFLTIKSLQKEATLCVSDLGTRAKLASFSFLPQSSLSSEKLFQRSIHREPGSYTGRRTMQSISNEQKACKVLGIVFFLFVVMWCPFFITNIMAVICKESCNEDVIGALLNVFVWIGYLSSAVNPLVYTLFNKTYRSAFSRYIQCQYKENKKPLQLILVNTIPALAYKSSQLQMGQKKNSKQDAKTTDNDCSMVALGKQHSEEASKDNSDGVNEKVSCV
Description: Binding affinity to 5HT2A receptor (unknown origin)

Mus musculus [2] = experiment: Antipsychotic-like activity in sc dosed NMRI mouse assessed as reduction in MK801-induced locomotor activity dosed 15 to 30 mins before administration of MK801 measured for 60 mins; format: functional; conditions: read-out: MED
Mus musculus [3] = experiment: Toxicity in NMRI mouse assessed as induction of tremors at 10 mg/kg, sc dosed 30 mins before test; format: organism-based; set-up: dose 10 mg/kg, route subcutaneous; conditions: in vivo, 0.5 h
D(3) dopamine receptor [4] = biological target: T1, D(3) dopamine receptor (Homo sapiens, UniProt P35462)
T1 sequence (P35462 whole entry): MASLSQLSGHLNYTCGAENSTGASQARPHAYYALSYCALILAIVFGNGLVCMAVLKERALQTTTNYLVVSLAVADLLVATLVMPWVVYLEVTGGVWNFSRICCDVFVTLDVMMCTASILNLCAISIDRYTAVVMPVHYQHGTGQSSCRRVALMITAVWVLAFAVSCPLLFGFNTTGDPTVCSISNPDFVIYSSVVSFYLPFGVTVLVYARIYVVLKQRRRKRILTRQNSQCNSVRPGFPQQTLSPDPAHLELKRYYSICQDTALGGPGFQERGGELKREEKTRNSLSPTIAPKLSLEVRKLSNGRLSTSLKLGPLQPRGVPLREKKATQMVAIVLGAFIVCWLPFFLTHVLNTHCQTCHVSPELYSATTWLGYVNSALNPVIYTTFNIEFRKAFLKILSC
Description: Binding affinity to dopamine D3 receptor (unknown origin)

[5] = biological target: T2, 5-hydroxytryptamine receptor 1A (Homo sapiens, UniProt P08908)
T2 sequence (P08908 whole entry): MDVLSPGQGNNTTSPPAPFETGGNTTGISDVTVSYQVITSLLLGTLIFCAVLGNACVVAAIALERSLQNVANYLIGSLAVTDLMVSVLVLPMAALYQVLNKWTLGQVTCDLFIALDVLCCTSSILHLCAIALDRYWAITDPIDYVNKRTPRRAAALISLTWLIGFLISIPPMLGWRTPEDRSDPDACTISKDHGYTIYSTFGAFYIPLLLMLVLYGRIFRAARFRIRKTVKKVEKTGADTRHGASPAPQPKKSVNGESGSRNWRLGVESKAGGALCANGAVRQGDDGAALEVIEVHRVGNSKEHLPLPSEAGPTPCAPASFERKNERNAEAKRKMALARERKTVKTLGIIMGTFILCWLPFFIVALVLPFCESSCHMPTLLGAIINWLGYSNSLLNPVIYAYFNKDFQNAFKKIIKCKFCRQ
Description: Binding affinity to 5HT1A receptor (unknown origin)

[6] = biological target: T3, 5-hydroxytryptamine receptor 2C (Homo sapiens, UniProt P28335)
T3 sequence (P28335 whole entry): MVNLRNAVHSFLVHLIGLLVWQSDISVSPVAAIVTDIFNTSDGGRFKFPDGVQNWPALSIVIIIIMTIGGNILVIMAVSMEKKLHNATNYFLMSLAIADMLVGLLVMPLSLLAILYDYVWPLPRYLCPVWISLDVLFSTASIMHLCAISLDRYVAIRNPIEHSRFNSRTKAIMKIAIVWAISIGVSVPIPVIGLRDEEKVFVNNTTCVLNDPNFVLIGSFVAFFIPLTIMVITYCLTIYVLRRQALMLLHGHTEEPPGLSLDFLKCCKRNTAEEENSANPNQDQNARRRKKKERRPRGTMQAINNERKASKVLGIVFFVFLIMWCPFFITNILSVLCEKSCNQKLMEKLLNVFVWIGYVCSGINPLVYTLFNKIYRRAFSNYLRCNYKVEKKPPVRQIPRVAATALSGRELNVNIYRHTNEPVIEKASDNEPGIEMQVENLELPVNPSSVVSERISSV
Description: Binding affinity to 5HT2C receptor (unknown origin)

Mus musculus [7] = organism: Mus musculus; conditions: in vivo, sc, 0.5 h
Description: Effect on spontaneous exploratory locomotor activity in sc dosed NMRI mouse measured for 30 mins with activity counts each 5 mins

Mus musculus [8] = organism: Mus musculus; experiment: animal or person; conditions: NMRI, sc, read-out: MED
Description: Antipsychotic-like activity in sc dosed NMRI mouse assessed as reduction in methamphetamine-induced locomotor activity dosed 15 to 30 mins before administration of methamphetamine measured for 60 mins

Mus musculus [9] = organism: Mus musculus; experiment: animal or person; conditions: NMRI, sc, read-out: MED; remark: listed apart in the source
Description: Antipsychotic-like activity in sc dosed NMRI mouse assessed as reduction in PCP-induced locomotor activity dosed 15 to 30 mins before administration of methamphetamine measured for 60 mins

Rattus norvegicus [10] = experiment: Reduction in blood pressure in anaesthetized rat at 10 mg/kg, iv; format: functional, organism-based; set-up: dose 10 mg/kg
Rattus norvegicus [11] = experiment: Increase in heart rate in anaesthetized rat at 10 mg/kg, iv; format: functional, organism-based; set-up: dose 10 mg/kg
D(3) dopamine receptor [12] = biological target: T1, D(3) dopamine receptor; experiment: Agonist activity at human dopamine D3 receptor expressed in CHO-K1 cells by [35S]GTPgammaS binding assay relative to dopamine; format: functional, cell-based
D(3) dopamine receptor [13] = biological target: T1, D(3) dopamine receptor; experiment: Antagonist activity at human dopamine D3 receptor expressed in CHO-K1 cells assessed as reduction in dopamine-induced response by [35S]GTPgammaS binding assay relative to control; format: functional, cell-based; conditions: concentration not given here
[14] = biological target: T4, 5-hydroxytryptamine receptor 1A (Homo sapiens) (UniProt P08908); experiment: Agonist activity at human 5HT1A receptor (unknown origin) expressed in CHO cells by [35S]GTPgammaS binding assay relative to 5-HT; format: functional, cell-based
T4 sequence (whole entry): T2 sequence (P08908 whole entry)

[15] = biological target: T4, 5-hydroxytryptamine receptor 1A (Homo sapiens); experiment: Antagonist activity at human 5HT1A receptor (unknown origin) expressed in CHO cells reduction in 5-HT-induced response by [35S]GTPgammaS binding assay; format: functional, cell-based; conditions: concentration not given here
[16] = biological target: 5-hydroxytryptamine receptor 2A (Rattus norvegicus) (UniProt P14842); experiment: Antagonist activity at 5HT2A receptor in rat aortic rings assessed as reduction in 5-HT-induced contraction relative to control; conditions: concentration not given here
Sequence of 5-hydroxytryptamine receptor 2A (Rattus norvegicus) (P14842 whole entry): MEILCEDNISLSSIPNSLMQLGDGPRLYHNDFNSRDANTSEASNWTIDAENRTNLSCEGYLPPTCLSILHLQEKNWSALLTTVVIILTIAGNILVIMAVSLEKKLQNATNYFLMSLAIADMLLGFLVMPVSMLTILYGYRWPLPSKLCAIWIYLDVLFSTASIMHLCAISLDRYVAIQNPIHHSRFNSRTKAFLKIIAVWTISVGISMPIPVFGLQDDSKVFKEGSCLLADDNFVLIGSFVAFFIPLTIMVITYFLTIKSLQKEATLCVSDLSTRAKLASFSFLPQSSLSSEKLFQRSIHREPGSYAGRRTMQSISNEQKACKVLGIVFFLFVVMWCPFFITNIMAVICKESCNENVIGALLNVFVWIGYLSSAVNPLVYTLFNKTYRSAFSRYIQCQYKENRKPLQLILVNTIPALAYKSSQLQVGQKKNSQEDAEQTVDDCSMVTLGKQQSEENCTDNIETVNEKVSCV

Rattus norvegicus [17] = experiment: Induction of c-Fos in ip dosed rat nucleus accumbens; format: functional, organism-based
Rattus norvegicus [18] = experiment: Induction of c-Fos in rat nucleus accumbens shell region at 3 to 30 mg/kg, ip; format: functional, organism-based
Rattus norvegicus [19] = experiment: Induction of c-Fos in rat nucleus accumbens core region at 10 mg/kg, ip; format: functional, organism-based; set-up: dose 10 mg/kg
Rattus norvegicus [20] = experiment: Induction of c-Fos in rat nucleus accumbens core region at 30 mg/kg, ip; format: functional, organism-based; set-up: dose 30 mg/kg
Rattus norvegicus [21] = experiment: Induction of c-Fos in rat dorsolateral striatum region at 30 mg/kg, ip; format: functional, organism-based; set-up: dose 30 mg/kg
Mus musculus [22] = experiment: Anti-psychotic activity in mouse assessed as amelioration of PCP-induced disruption of prepulse inhibition at 3 mg/kg, po; format: functional, organism-based; set-up: dose 3 mg/kg
Mus musculus [23] = experiment: Anti-psychotic activity in mouse assessed as amelioration of PCP-induced disruption of prepulse inhibition at 30 mg/kg, po; format: functional, organism-based; set-up: dose 30 mg/kg
Mus musculus [24] = experiment: Increase in prepulse inhibition in mouse at 30 mg/kg, po dosed 30 mins before testing; format: functional, organism-based; set-up: dose 30 mg/kg
Mus musculus [25] = experiment: Anxiolytic activity in orally dosed mouse dosed 30 mins before test by marble burying method; format: functional, organism-based
Rattus norvegicus [26] = experiment: Increase in dopamine release in Wistar rat medial prefrontal cortex at 10 mg/kg, sc measured for 90 mins administered as single dose by microdialysis method; format: functional, organism-based; set-up: dose 10 mg/kg
Rattus norvegicus [27] = experiment: Increase in dopamine release in Wistar rat nucleus accumbens at 10 mg/kg, sc measured during 0 to 90 mins administered as single dose by microdialysis method; format: functional, organism-based; set-up: dose 10 mg/kg

Sequence of D(2) dopamine receptor (P14416 whole entry): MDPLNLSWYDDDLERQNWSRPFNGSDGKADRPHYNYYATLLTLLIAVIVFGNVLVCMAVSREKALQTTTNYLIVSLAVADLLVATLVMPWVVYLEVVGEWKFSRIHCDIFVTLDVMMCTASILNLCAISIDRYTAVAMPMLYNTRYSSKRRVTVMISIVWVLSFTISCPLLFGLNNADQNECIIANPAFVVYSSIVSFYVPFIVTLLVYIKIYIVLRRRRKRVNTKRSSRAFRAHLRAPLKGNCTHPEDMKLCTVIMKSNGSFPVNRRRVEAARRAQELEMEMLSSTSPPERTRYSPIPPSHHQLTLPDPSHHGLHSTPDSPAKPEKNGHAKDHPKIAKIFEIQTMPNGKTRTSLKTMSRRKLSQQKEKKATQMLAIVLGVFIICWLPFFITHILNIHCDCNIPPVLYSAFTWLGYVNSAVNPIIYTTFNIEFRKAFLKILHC

Ki (D(2) dopamine receptor): > 1000 nM
Ki [1]: 392 nM
Ki (D(3) dopamine receptor [4]): 4 nM
Ki [5]: 30 nM
Ki [6]: > 1000 nM
MED (Mus musculus [7]): <= 0.3 mg kg-1
SMILES: O=C(NCCCCN1CCN(c2ccccc2)CC1)c1cc2ccccc2o1
minimal effective dose (Mus musculus [2]): 3 mg/kg
Activity (Mus musculus [3]): Toxic
minimal effective dose (Mus musculus [8]): ≤ 1 mg/kg
minimal effective dose (Mus musculus [9]): ≤ 0.3 mg/kg

Activity (D(3) dopamine receptor [12]): 21%
inhibition (D(3) dopamine receptor [13]): 69%
Activity [14]: 66%
inhibition [15]: 19%
inhibition [16]: 94%
SMILES: O=C(NCCCCN1CCN(c2ccccc2)CC1)c1ccc2ncccc2c1
Activity (Rattus norvegicus [10]): Active
Activity (Rattus norvegicus [11]): Active
Activity (Rattus norvegicus [17]): Dose-dependent effect
Activity (Rattus norvegicus [18]): Active
Activity (Rattus norvegicus [19]): inactive
Activity (Rattus norvegicus [20]): Active
Activity (Rattus norvegicus [21]): Active
Activity (Mus musculus [22]): Active
Activity (Mus musculus [23]): inactive
Activity (Mus musculus [24]): Active
Activity (Mus musculus [25]): Dose-dependent effect
Activity (Rattus norvegicus [26]): Active
Activity (Rattus norvegicus [27]): inactive
